The results in this text go back to US4085224A, “Method of increasing feed utilization” (Eli Lilly and Company, priority 1976, dated 1978).

For one test, the system named is type III poliovirus. In kind it is cell-based. To be noted: in vitro plaque suppression.
Another test relates to Newcastle Disease virus. In kind it is cell-based. The settings on record: tissue-culture.
For the next test, the system named is Semliki Forest virus. Put plainly: in vitro plaque suppression test. In kind it is cell-based.
Test [1] relates to E. necatrix and E. tenella. Put plainly: anticoccidial activity in chicks, mixed infection (Table X). In kind it is in vivo. The settings on record: 0.005 percent in feed. An excerpt:
(§1) ^1 Four replicates, 5 broiler cockerels each.

Test [2] concerns E. tenella, E. necatrix, E. maxima, E. brunetti, E. acervulina, and E. mivati. The description is as above. In kind it is in vivo. The settings on record: 0.01 percent in feed.
Description: as §1

Test [3] has as its system Transmissible Gastro-enteritis virus. In kind it is cell-based.

For the compound `CCC(C(=O)O)C1OC(C(C)C(O)C(C)C(=O)C(CC)C2OC3(C=CC(O)C4(CCC(C)(C5CCC(O)(CC)C(C)O5)O4)O3)C(C)CC2C)C(C)CC1C` (stereo not shown) [A-28086 factor A], the antiviral activity result (in the test on type III poliovirus; in the test on Newcastle Disease virus; in the test with Semliki Forest virus; in test [3]) was “active” throughout. The “Cecal Lesions, Percent Reduction” value in test [1] came to 50%; in test [2] it was 73%. Further, the entries for the “Intestinal Lesions, Percent Reduction” value in test [1] and in test [2] were 59% and 79%, respectively. Further, the entries for the “Intestinal Lesions, Average” value in test [1] (infected controls 1.7) and in test [2] (infected controls 1.9) were 0.7 and 0.4, respectively. The “Cecal Lesions, Average” value was found to be 1.75 in test [1] (infected controls 3.5) and 0.9 in test [2] (infected controls 3.3). For the same compound, the “Percent Mortality” value in test [1] (infected controls 20) and in test [2] (infected controls 50) was 0% in each case. Further, the “Percent Weight Gain” value in test [1] (infected controls 52) came to 94%; in test [2] (infected controls 12), 91%.
